# Measured values as given in PubChem BioAssay AID1963975 (Molecular Pharmacology Branch, DTP, NCI, 2024).
# Tested on: 624824-186-R-J2-PDC multicell spheroids, viability
# Test: Anticancer human tumor 624824-186-R-J2-PDC patient-derived colon adenocarcinoma cell line growth inhibition [PI3K]
# Settings: for IC50: curve of first compound; for viability, T/C: stronger effect = lower value
# Method in brief: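 Spheroid viability read-out. Co-cultures contained the tumor line plus HUVEC and human MSCs. Each agent was paired with a PI3K inhibitor (inavolisib, alpelisib, duvelisib, copanlisib) across half-log dilutions starting at clinical Cmax, or at 10 microM when Cmax was unknown.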
# [1] = second compound 0.0316 µM, first compound 0.000316 µM
# [2] = second compound 0.0316 µM, first compound 0.001 µM
# [3] = second compound 0.0316 µM, first compound 0.00316 µM
# [4] = second compound 0.0316 µM, first compound 0.01 µM
# [5] = second compound 0.0316 µM, first compound 0.0316 µM
# [6] = second compound 0.0316 µM, first compound 0.1 µM
# [7] = second compound 0.1 µM, first compound 0.000316 µM
# [8] = second compound 0.1 µM, first compound 0.001 µM
# [9] = second compound 0.1 µM, first compound 0.00316 µM
# [10] = second compound 0.1 µM, first compound 0.01 µM
# [11] = second compound 0.1 µM, first compound 0.0316 µM
# [12] = second compound 0.1 µM, first compound 0.1 µM
# [13] = second compound 0.316 µM, first compound 0.000316 µM
# [14] = second compound 0.316 µM, first compound 0.001 µM
# [15] = second compound 0.316 µM, first compound 0.00316 µM
# [16] = second compound 0.316 µM, first compound 0.01 µM
# [17] = second compound 0.316 µM, first compound 0.0316 µM
# [18] = second compound 0.316 µM, first compound 0.1 µM
# [19] = second compound 1 µM, first compound 0.000316 µM
# [20] = second compound 1 µM, first compound 0.001 µM
# [21] = second compound 1 µM, first compound 0.00316 µM
# [22] = second compound 1 µM, first compound 0.01 µM
# [23] = second compound 1 µM, first compound 0.0316 µM
# [24] = second compound 1 µM, first compound 0.1 µM
# [25] = second compound 3.16 µM, first compound 0.000316 µM
# [26] = second compound 3.16 µM, first compound 0.001 µM
# [27] = second compound 3.16 µM, first compound 0.00316 µM
# [28] = second compound 3.16 µM, first compound 0.01 µM
# [29] = second compound 3.16 µM, first compound 0.0316 µM
# [30] = second compound 3.16 µM, first compound 0.1 µM
# [31] = second compound 10 µM, first compound 0.000316 µM
# [32] = second compound 10 µM, first compound 0.001 µM
# [33] = second compound 10 µM, first compound 0.00316 µM
# [34] = second compound 10 µM, first compound 0.01 µM
# [35] = second compound 10 µM, first compound 0.0316 µM
# [36] = second compound 10 µM, first compound 0.1 µM
# 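Further: spheroids exposed to agents for 7 days before viability read.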
# 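Wherever viability, T/C is given: 100% = DMSO vehicle treated spheroids.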
smiles,measurement,setting,value
CC(=O)c1c(C)c2cnc(Nc3ccc(N4CCNCC4)cn3)nc2n(C2CCCC2)c1=O + Cc1nc(NC(=O)N2CCCC2C(N)=O)sc1-c1ccnc(C(C)(C)C(F)(F)F)c1,IC50,second compound 0.0316 µM,> 100 nM
same,IC50,second compound 0.1 µM,> 100 nM
same,IC50,second compound 0.316 µM,> 100 nM
same,IC50,second compound 1 µM,> 100 nM
same,IC50,second compound 3.16 µM,> 100 nM
same,IC50,second compound 10 µM,> 100 nM
same,"viability, T/C",[1],81.6%
same,"viability, T/C",[2],72.8%
same,"viability, T/C",[3],83.6%
same,"viability, T/C",[4],79.2%
same,"viability, T/C",[5],74.1%
same,"viability, T/C",[6],82.8%
same,"viability, T/C",[7],98.2%
same,"viability, T/C",[8],105%
same,"viability, T/C",[9],93.6%
same,"viability, T/C",[10],75.9%
same,"viability, T/C",[11],91.4%
same,"viability, T/C",[12],76.2%
same,"viability, T/C",[13],89%
same,"viability, T/C",[14],80.6%
same,"viability, T/C",[15],85%
same,"viability, T/C",[16],97.4%
same,"viability, T/C",[17],88.3%
same,"viability, T/C",[18],88.7%
same,"viability, T/C",[19],96.3%
same,"viability, T/C",[20],78.9%
same,"viability, T/C",[21],88.5%
same,"viability, T/C",[22],87.2%
same,"viability, T/C",[23],82.5%
same,"viability, T/C",[24],77.2%
same,"viability, T/C",[25],80.9%
same,"viability, T/C",[26],83.6%
same,"viability, T/C",[27],91.1%
same,"viability, T/C",[28],80.7%
same,"viability, T/C",[29],85.1%
same,"viability, T/C",[30],75.1%
same,"viability, T/C",[31],73.8%
same,"viability, T/C",[32],67.5%
same,"viability, T/C",[33],72.1%
same,"viability, T/C",[34],75.9%
same,"viability, T/C",[35],66%
same,"viability, T/C",[36],56.9%
CC(C)n1nc(-c2ccc3oc(N)nc3c2)c2c(N)ncnc21 + Cc1nc(NC(=O)N2CCCC2C(N)=O)sc1-c1ccnc(C(C)(C)C(F)(F)F)c1,IC50,second compound 0.0316 µM,> 100 nM
same,IC50,second compound 0.1 µM,> 100 nM
same,IC50,second compound 0.316 µM,> 100 nM
same,IC50,second compound 1 µM,> 100 nM
same,IC50,second compound 3.16 µM,> 100 nM
same,IC50,second compound 10 µM,37.5 nM
same,"viability, T/C",[1],68.1%
same,"viability, T/C",[2],74%
same,"viability, T/C",[3],59.7%
same,"viability, T/C",[4],67.7%
same,"viability, T/C",[5],58.7%
same,"viability, T/C",[6],67.8%
same,"viability, T/C",[7],79.1%
same,"viability, T/C",[8],64.5%
same,"viability, T/C",[9],65.4%
same,"viability, T/C",[10],62.5%
same,"viability, T/C",[11],74%
same,"viability, T/C",[12],75%
same,"viability, T/C",[13],86.9%
same,"viability, T/C",[14],69%
same,"viability, T/C",[15],81.6%
same,"viability, T/C",[16],64.7%
same,"viability, T/C",[17],60.9%
same,"viability, T/C",[18],67.7%
same,"viability, T/C",[19],79.4%
same,"viability, T/C",[20],61.1%
same,"viability, T/C",[21],61%
same,"viability, T/C",[22],70.5%
same,"viability, T/C",[23],67.1%
same,"viability, T/C",[24],63.6%
same,"viability, T/C",[25],72.2%
same,"viability, T/C",[26],61.3%
same,"viability, T/C",[27],66.1%
same,"viability, T/C",[28],65.9%
same,"viability, T/C",[29],69.7%
same,"viability, T/C",[30],53.7%
same,"viability, T/C",[31],68.2%
same,"viability, T/C",[32],74%
same,"viability, T/C",[33],65.8%
same,"viability, T/C",[34],61.5%
same,"viability, T/C",[35],51.8%
same,"viability, T/C",[36],41.1%
